Test results reported in ChEMBL document CHEMBL1201862, “PubChem BioAssay data set” (2004).
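Results reflect a 48-hour exposure of cells in 96-well plates to compound at five concentrations. GI50 marks 50% less growth.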 Active and inactive are the calls of the source. No stated cut-off is given here; in the data, active = GI50 up to about 1.1 µM and inactive = higher.

Assays:
Test in all cases: NCI anticancer screen, dose series, 48 h
LOX IMVI = test system: LOX IMVI
A549 = test system: A549
KM12 = test system: KM12
BT-549 = test system: BT-549
A498 = test system: A498
SF-539 = test system: SF-539
MOLT-4 = test system: MOLT-4
HL-60 = test system: HL-60
HT-29 = test system: HT-29
UACC-62 = test system: UACC-62
EKVX = test system: EKVX
SW-620 = test system: SW-620
SK-MEL-5 = test system: SK-MEL-5
NCI-H522 = test system: NCI-H522
HCT-15 = test system: HCT-15
OVCAR-4 = test system: OVCAR-4
SK-OV-3 = test system: SK-OV-3
HOP-92 = test system: HOP-92
M14 = test system: M14
SK-MEL-2 = test system: SK-MEL-2
CCRF-CEM = test system: CCRF-CEM
NCI-H226 = test system: NCI-H226
SK-MEL-28 = test system: SK-MEL-28
OVCAR-5 = test system: OVCAR-5
Hs-578T = test system: Hs-578T
HCT-116 = test system: HCT-116
MDA-MB-231 = test system: MDA-MB-231
OVCAR-8 = test system: OVCAR-8
OVCAR-3 = test system: OVCAR-3
T47D = test system: T47D
NCI/ADR-RES = test system: NCI/ADR-RES
SR = test system: SR
SNB-75 = test system: SNB-75
TK-10 = test system: TK-10
SF-268 = test system: SF-268
DU-145 = test system: DU-145
SN12C = test system: SN12C
K562 = test system: K562
Malme-3M = test system: Malme-3M
RXF 393 = test system: RXF 393
UACC-257 = test system: UACC-257
NCI-H23 = test system: NCI-H23
MDA-N = test system: MDA-N
MCF7 = test system: MCF7
PC-3 = test system: PC-3
HOP-62 = test system: HOP-62
RPMI-8226 = test system: RPMI-8226
HCC 2998 = test system: HCC 2998
ACHN = test system: ACHN
IGROV-1 = test system: IGROV-1
U-251 = test system: U-251
CAKI-1 = test system: CAKI-1
MDA-MB-435 = test system: MDA-MB-435
NCI-H460 = test system: NCI-H460
SF-295 = test system: SF-295
COLO 205 = test system: COLO 205
SNB-19 = test system: SNB-19
UO-31 = test system: UO-31

In the case of `CCCCOP(C)(=O)C(NC(=O)OCC)(C(F)(F)F)C(F)(F)F` (stereo not drawn), the GI50 (LOX IMVI) is reported as > 100 µM (inactive), the GI50 (A549) is reported as > 100 µM (inactive) and the GI50 (KM12) is reported as > 100 µM (inactive). For the same compound, the GI50 (BT-549) was > 100 µM (inactive), the GI50 (A498) was > 100 µM (inactive) and the GI50 (SF-539) was > 100 µM (inactive). The GI50 (MOLT-4) was > 100 µM (inactive), the GI50 (HL-60) was > 100 µM (inactive) and the GI50 (HT-29) was > 100 µM (inactive). The GI50 (UACC-62) was > 100 µM (inactive), the GI50 (EKVX) was > 100 µM (inactive) and the GI50 (SW-620) was > 100 µM (inactive). The GI50 (SK-MEL-5) was > 100 µM (inactive), the GI50 (NCI-H522) was 65.8 µM (inactive) and the GI50 (HCT-15) was > 100 µM. The GI50 (OVCAR-4) was > 100 µM (inactive), the GI50 (SK-OV-3) was > 100 µM (inactive) and the GI50 (HOP-92) was > 100 µM (inactive). The GI50 (M14) was > 100 µM (inactive), the GI50 (SK-MEL-2) was > 100 µM (inactive) and the GI50 (CCRF-CEM) was > 100 µM (inactive). The GI50 (NCI-H226) was > 100 µM (inactive), the GI50 (SK-MEL-28) was > 100 µM (inactive) and the GI50 (OVCAR-5) was > 100 µM (inactive). For the same compound, the GI50 (Hs-578T) was > 100 µM (inactive), the GI50 (HCT-116) was > 100 µM (inactive) and the GI50 (MDA-MB-231) was > 100 µM (inactive). For the same compound, the GI50 (OVCAR-8) was > 100 µM (inactive), the GI50 (OVCAR-3) was > 100 µM (inactive) and the GI50 (T47D) was > 100 µM (inactive). For the same compound, the GI50 (NCI/ADR-RES) was > 100 µM (inactive), the GI50 (SR) was > 100 µM (inactive) and the GI50 (SNB-75) was > 100 µM (inactive). The GI50 (TK-10) was > 100 µM (inactive), the GI50 (SF-268) was > 100 µM (inactive) and the GI50 (DU-145) was > 100 µM (inactive). For the same compound, the GI50 (SN12C) was > 100 µM (inactive), the GI50 (K562) was > 100 µM (inactive) and the GI50 (Malme-3M) was > 100 µM (inactive). For the same compound, the GI50 (RXF 393) was > 100 µM (inactive), the GI50 (UACC-257) was > 100 µM (inactive) and the GI50 (NCI-H23) was > 100 µM (inactive). For the same compound, the GI50 (MDA-N) was > 100 µM (inactive), the GI50 (MCF7) was > 100 µM (inactive) and the GI50 (PC-3) was > 100 µM (inactive). The GI50 (HOP-62) was > 100 µM (inactive), the GI50 (RPMI-8226) was > 100 µM (inactive) and the GI50 (HCC 2998) was > 100 µM (inactive). The GI50 (ACHN) was > 100 µM (inactive), the GI50 (IGROV-1) was > 100 µM (inactive) and the GI50 (U-251) was > 100 µM (inactive). The GI50 (CAKI-1) was > 100 µM (inactive), the GI50 (MDA-MB-435) was > 100 µM (inactive) and the GI50 (NCI-H460) was > 100 µM (inactive). The GI50 (SF-295) was > 100 µM (inactive), the GI50 (COLO 205) was > 100 µM (inactive) and the GI50 (SNB-19) was > 100 µM (inactive). For the same compound, the GI50 (UO-31) was > 100 µM (inactive).
